Assay results: patent US8618178B2, “Method and substances for treating T-cell mediated autoimmune diseases” (Eberhard-Karls-Universitaet Tuebingen Universitaetsklinikum, priority 2006, dated 2013)
Entries after “also recorded” stand apart in the source; their conditions may differ. Counter-ions that a name gives are not always drawn.

Assays:
[1] = system: experimental autoimmune encephalomyelitis (EAE); test: Actively induced EAE in SJL mice, substance in the drinking water; type: in vivo; details: for course/severity of actively induced EAE: DMF 0.3 mg/ml or L-BSO 0.15 mg/ml in the drinking water; for survival of mice with actively induced EAE: substance in the drinking water
Experimental: Spleen and lymph node CD4^+ T cells were stimulated with PLP (proteolipid protein) peptide 139-151 (10 μg/ml) and stimulated for four days with irradiated SJL-APC in the presence or absence of L-BSO (0.5 mM, Sigma), expanded for three to four days and then restimulated for cytokine production (proteolipid protein is the commonest myelin protein in the central nervous system and plays an important part as an autoantigen in the onset of multiple sclerosis). Next, 10^7 sham (control) or L-BSO treated T cells were injected intraperitoneally into naive SJL mice and the EAE developing as a result was observed. […] Half of the group was fed daily for 14 days with DMF 0.3 mg/ml (Fluka) or L-BSO 0.15 mg/ml in the drinking water. For the cytokine analysis of PLP-specific T cells, the draining lymph nodes of the SJL mice were removed 6 days after the immunization and CD4^+ T cells antigen-specifically analyzed (ELISPOT). For this, ELISPOT plates (Millipore Corporation) were coated with anti-IFN-γ or anti-IL-4 antibodies overnight at 4° C., blocked after 12 hrs with PBS/10% FCS and, after the solution had been poured off, the isolated T lymphocytes were incubated with APC and medium alone or in the presence of PLP peptide. After the incubation time, the cells were poured off, and the plates washed with PBS/Tween and incubated with biotin-conjugated secondary antibodies. After further washing procedures and incubation with streptavidin-alkaline phosphatase (Boehringer), the plates were incubated with developer solution. After washing with H2O, the number of spots was determined in the ELISPOT reader (Biosys).
In order further to study whether GSH deprivation can also influence the differentiation and pathogenicity of autoreactive T cells in vivo, mice were fed with DMF or L-BSO in the drinking water, and the control group only with drinking water. Active EAE induction was effected on day 10 with PLP peptide in complete Freund's adjuvant (CFA) and pertussis toxin. The mice were examined daily regarding the course of the artificially triggered disease. Through the administration of L-BSO or DMF, the GSH levels in lymphoid organs and in the brain of immunized mice could be lowered (not shown). […] 6 days after immunization, the draining lymph nodes of the mice were analyzed. For this, the CD4^+ T cells were isolated and the cytokine production of PLP-specific T cells measured using ELISPOT after in vitro stimulation.

DC = test: Colorimetric determination of cellular GSH content of DC; type: cell-based, mouse; details: L-BSO 0.5 mM, DMF 70 μM, MMF 200 μM
Experimental: Cellular GSH and GSSG were determined in micro-titer plate assays using colorimetric methods. The cellular GHS content is determined as a percentage of the GSH levels in freshly prepared controls or as pmol 10^−6 cells. GSSG was not detectable.
As antigen presenting cells (APC), T cell depleted spleen cells from syngenic mice were used. Dendritic cells (DC) which were obtained from bone marrow (BMDC) and cultured with GM-CSF were used for the relevant experiments on day 7 of culturing. For the experiment, in each case an equal number of APC were cultured either with the medium alone, with L-BSO (C8H18N2O3S, 0.5 mM), dimethyl sulfoxide DMSO(C2H6OS), dimethyl fumarate DMF (C6H8O4, dissolved in DMSO, 70 μM), or calcium monomethyl fumarate (MMF; CaC10H10O8, 200 μM). All substances except for MMF (Fumapharm) were purchased from Sigma-Aldrich. At the respective stated times (see below) the cells were either analyzed directly for their GSH content, used for T cell stimulation or stimulated for […] with Escherichia coli lipopolysaccharides 055.B5 (Sigma-Aldrich) or CpG-DNA 1668 (MWG Biotech) and IL-4 (Stratmann). […]
For the testing of the potential of pharmaceutical substances to lower the glutathione content of cells, the following procedure was carried out: cells (antigen-presenting cells or dendritic cells) are incubated with different concentrations of the given pharmaceutical substance to be tested. Then, after an incubation time of 1 hr, 2 hrs, 24 hrs or 48 hrs, the glutathione content of the cells is determined in comparison to control cells. […]
The samples and the GSH standard were diluted in a microtiter plate and the assay reaction started by addition of a reaction mix which contains glutathione reductase. […] The rise in the extinction is measured at 405 nm at 30 sec intervals over 10 mins with a microtiter plate reader. The glutathione content was determined using a calibration curve. […] The protein content was determined by the method of Lowry (see for example, Dringen, et al., “Supply by Astrocytes of CysGly as Precursor for neuronal Glutathione”, J. Neurosci 19:562-569). […]

[2] = system: PLP-specific CD4+ T cells; test: ELISPOT cytokine analysis of PLP-specific CD4+ T cells from draining lymph nodes of fed mice; type: in vivo, SJL mice; details: 6 days after immunization, ELISPOT IL-4 / IFN-γ
Experimental: Spleen and lymph node CD4^+ T cells were stimulated with PLP (proteolipid protein) peptide 139-151 (10 μg/ml) and stimulated for four days with irradiated SJL-APC in the presence or absence of L-BSO (0.5 mM, Sigma), expanded for three to four days and then restimulated for cytokine production (proteolipid protein is the commonest myelin protein in the central nervous system and plays an important part as an autoantigen in the onset of multiple sclerosis). Next, 10^7 sham (control) or L-BSO treated T cells were injected intraperitoneally into naive SJL mice and the EAE developing as a result was observed. […] For the cytokine analysis of PLP-specific T cells, the draining lymph nodes of the SJL mice were removed 6 days after the immunization and CD4^+ T cells antigen-specifically analyzed (ELISPOT). […] After washing with H2O, the number of spots was determined in the ELISPOT reader (Biosys).
In order further to study whether GSH deprivation can also influence the differentiation and pathogenicity of autoreactive T cells in vivo, mice were fed with DMF or L-BSO in the drinking water, and the control group only with drinking water. […] 6 days after immunization, the draining lymph nodes of the mice were analyzed. For this, the CD4^+ T cells were isolated and the cytokine production of PLP-specific T cells measured using ELISPOT after in vitro stimulation.

SMILES | course/severity of actively induced EAE [1] | survival of mice with actively induced EAE [1] | intracellular GSH content of DC (DC) | cytokine pattern of PLP-specific CD4+ T cells [2]
COC(=O)/C=C/C(=O)OC [DMF, dimethyl fumarate] | markedly milder EAE; also recorded: protects actively immunized mice against the onset of severe encephalomyelitis | all mice survived | depletes the intracellular glutathione level; also recorded: marked decrease | TH2-like pattern
CCCCS(=N)(=O)CCC(N)C(=O)O [L-BSO, L-buthionine sulfoximine] | markedly milder EAE; also recorded: markedly improved; also recorded: protects actively immunized mice against the onset of severe encephalomyelitis | all mice survived | depletes the intracellular glutathione level; also recorded: marked decrease | TH2-like pattern
COC(=O)/C=C/C(=O)[O-].[Ca+] [MMF, calcium monomethyl fumarate] | – | – | depletes the intracellular glutathione level; also recorded: marked decrease | –
